Reference: patent publication US20240209388A1, “EXPRESSION VECTOR OF GLYPHOSATE-RESISTANT GENES GR79 AND GAT, HIGH GLYPHOSATE-RESISTANT CORN, AND DETECTION METHOD THEREFOR” (BIOTECHNOLOGY RESEARCH INSTITUTE, CHINESE ACADEMY OF …, priority 2021, published 2024)
“Also recorded” adds a separate entry of the source. Where two headings read alike, the source gives them in different places.

Assays:
[1] = tested on: non-transgenic control corn; assay type: in vivo; settings: high dose on the pesticide registration tag, four to six leaves, surveyed 1, 2, 4 weeks after application
Description: (§1) transgenic corn to non-target herbicide 3 types of herbicides were set in this test, i.e., mesotrione· propisochlor atrazine SC (3.5% mesotrione, 15% propisochlor, and 15% atrazine) commonly used in corn field, glufosinate-ammonium (20% active ingredient) sensitive to corn, and haloxyfop-R-methyl (10.8% active ingredient), respectively. 4 treatments were set: (1) free of spraying herbicide; (2) spraying mesotrione· propisochlor atrazine SC; (3) spraying glufosinate-ammonium; and (4) spraying haloxyfop-R-methyl. The spraying dose is a high dose on the pesticide registration tag. Stems and leaves were sprayed when corn grew to four to six leaves. Seedling rate and symptom of pesticide damage were surveyed 1, 2, and 4 weeks later after application, respectively.

[2] = tested on: bivalent GAT and GR79 transgenic herbicide-resistant corn; assay type: in vivo; settings: high dose on the pesticide registration tag, four to six leaves, surveyed 1, 2, 4 weeks after application
Description: as §1

transgenic cotton = settings: T1 generation, solution diluted to 1/200 (0.205 g/100 ml), 450 L/hectare; cited from earlier work
transgenic corn GG2 = assay: Field glyphosate tolerance of the transgenic corn event GG2; assay type: in vivo, Zea mays; settings: for plant height 1 week BC4 / plant height 1 week BC5: 1 week after application; for plant height 2 weeks BC4 / plant height 2 weeks BC5: 2 weeks after application; for plant height 4 weeks BC4 / plant height 4 weeks BC5: 4 weeks after application
Method: Field herbicide tolerance of transgenic corn was tested in accordance with the Test for Environmental Safety of Transgenic Plant and its Products Part 1 of Herbicide-Resistant Corn: herbicide Tolerance (No. 953 bulletin-11.1-2007 of the Ministry of Agriculture and Rural Affairs).
The test material was the transgenic corn GG2, and the corresponding non-transgenic corn. The herbicide was glyphosate. […] An isolation belt (a width of 1.0 m) was set among the blocks. Treatments include: transgenic corn not sprayed with a herbicide, transgenic corn sprayed with a target herbicide (glyphosate), non-transgenic corn not sprayed with a herbicide, and non-transgenic corn sprayed with a target herbicide (glyphosate). The application amount of the herbicide was 1-fold, 2 times, and 4 times the medium dose (active ingredient: 900 g/hectare) on the pesticide registration tag, respectively. The herbicide was applied at the four to five-leaf stage of corn. The rate of survival, plant height, and symptom of pesticide damage were surveyed and recorded 1, 2, and 4 weeks later after application, respectively. The symptom of pesticide damage was graded according to GB/T 19780.42. Glyphosate in the transgenic corn GG2, and in its corresponding transgenic control, and non-transgenic control was identified.

[3] = tested on: monovalent GAT transgenic corn; assay: Screening of high glyphosate-resistant events of monovalent GAT transgenic corn; assay type: in vivo, Zea mays
Description: To determine the effect of the combined use of double genes on high glyphosate tolerance, the transgenic corn transformed with the single gene GAT was subjected to glyphosate tolerance test according to the same screening process, 8 transformation events which could be resistant to 4 times glyphosate were obtained finally, accounting for 21.05% of the 38 positive transgenic materials. By comparison of the two, the bivalent GAT and GR79 transgenic glyphosate-resistant corn was easier to obtain high glyphosate-resistant materials.

transgenic maize = settings: AM79 single-gene transgenic maize; cited from earlier work
[4] = tested on: bivalent GAT and GR79 transgenic corn; assay: Screening of high glyphosate-resistant events of bivalent GAT and GR79 transgenic corn; assay type: in vivo, Zea mays; settings: for transformation events free of symptom of pesticide damage: 4 weeks after application
Method: 2 times the medium dose of glyphosate (active ingredient: 1800 g/hectare) was continuously applied, and survey was conducted 4 weeks later after application, 63 transformation events were free of symptom of pesticide damage. The T2 generation of materials of the screened 63 transformation events were sown and sprayed with glyphosate at the four to five-leaf stage in a spraying amount of 1-fold, 2 times, and 4 times the medium dose (active ingredient: 900 g/hectare) on the pesticide registration tag. The rate of survival and symptom of pesticide damage of each transformation event were surveyed and recorded 4 weeks later after application. 47 transformation events were free of symptom of pesticide damage after sprayed with 4 times the medium dose of glyphosate and thus, were high glyphosate-resistant materials, accounting for 61.84% of the 76 positive transgenic materials. The screening concentration continued to be increased; when it was up to 8 times (active ingredient: 7200 g/hectare) the medium dose, 6 transformation events were not affected.

[5] = GG2 BC4, 1-fold the medium dose
[6] = GG2 BC4, 2 times the medium dose
[7] = GG2 BC4, 4 times the medium dose
[8] = GG2 BC5, 1-fold the medium dose
[9] = GG2 BC5, 2 times the medium dose
[10] = GG2 BC5, 4 times the medium dose
[11] = 8 times the medium dose (active ingredient: 7200 g/hectare)

CP(=O)(O)CCC(N)C(=O)O (centres unmarked) [glufosinate-ammonium]
seedling rate and symptom of pesticide damage [1]: died
seedling rate and symptom of pesticide damage [2]: died
seedling rate and symptom of pesticide damage ([2]; listed as Glufosinate-ammonium): sensitive

CC(C)N.O=C(O)CNCP(=O)(O)O [glyphosate isopropylamine]
survival rate (transgenic cotton): more than 84%

O=C(O)CNCP(=O)(O)O [glyphosate]
plant height versus transgenic corn not sprayed (transgenic corn GG2; GG2, 1-fold, 2 and 4 times the medium dose): no significant difference
symptom of damage (transgenic corn GG2; GG2, 1-fold, 2 and 4 times the medium dose, each stage, two consecutive generations): free of symptom of damage
plant height 1 week BC4 (transgenic corn GG2; GG2 BC4, 1-fold the medium dose (900 g active ingredient/hectare)): 58.52 cm
plant height 2 weeks BC4 (transgenic corn GG2; [5]): 85.59 cm
plant height 4 weeks BC4 (transgenic corn GG2; [5]): 158.39 cm
plant height 1 week BC4 (transgenic corn GG2; [6]): 51.24 cm
plant height 2 weeks BC4 (transgenic corn GG2; [6]): 79.38 cm
plant height 4 weeks BC4 (transgenic corn GG2; [6]): 147.75 cm
plant height 1 week BC4 (transgenic corn GG2; [7]): 59.81 cm
plant height 2 weeks BC4 (transgenic corn GG2; [7]): 88.41 cm
plant height 4 weeks BC4 (transgenic corn GG2; [7]): 158.53 cm
plant height 1 week BC5 (transgenic corn GG2; [8]): 33.87 cm
plant height 2 weeks BC5 (transgenic corn GG2; [8]): 51.71 cm
plant height 4 weeks BC5 (transgenic corn GG2; [8]): 136.37 cm
plant height 1 week BC5 (transgenic corn GG2; [9]): 33.11 cm
plant height 2 weeks BC5 (transgenic corn GG2; [9]): 54.29 cm
plant height 4 weeks BC5 (transgenic corn GG2; [9]): 139.65 cm
plant height 1 week BC5 (transgenic corn GG2; [10]): 34.65 cm
plant height 2 weeks BC5 (transgenic corn GG2; [10]): 53.78 cm
plant height 4 weeks BC5 (transgenic corn GG2; [10]): 137.39 cm
glyphosate dose GG2 is resistant to (transgenic corn GG2; medium dose 900 g active ingredient/hectare): 4 times the medium dose
resistant events as share of the 38 positive transgenic materials ([3]; 4 times glyphosate): 21.05%
plant survival [3, 11]: no survival plant
transformation events resistant to 4 times glyphosate ([3]; of 38 positive single-gene GAT materials, 4 times the medium dose): 8
leaf symptoms of pesticide damage ([3]; partial high-resistant GAT events, a few days after 4 times the medium dose): mild symptoms of herbicide damage; also recorded: mild symptoms of pesticide damage
tolerated dose (active ingredient) (transgenic maize): 3600 g/hectare
high glyphosate-resistant materials as share of the 76 positive transgenic materials ([4]; 4 times the medium dose): 61.84%
transformation events not affected [4, 11]: 6
harm by glyphosate during multi-generation screening ([4]; GG2 transformation event): not endangered by glyphosate
transformation events free of symptom of pesticide damage ([4]; T1, 2 times the medium dose (active ingredient: 1800 g/hectare)): 63
survival transformation events ([4]; T1 generation of 76 double-positive events, four-leaf stage, medium dose (active ingredient: 900 g/hectare)): 72
rate of zero symptom of pesticide damage ([4]; T1 generation of 76 double-positive events, medium dose (active ingredient: 900 g/hectare)): 94.7%
transformation events free of symptom of pesticide damage ([4]; T2 of 63 events, 4 times the medium dose): 47

COC(=O)[C@@H](C)Oc1ccc(Oc2ncc(C(F)(F)F)cc2Cl)cc1 [haloxyfop-R-methyl]
seedling rate and symptom of pesticide damage [1]: died
